# Results taken from US4973472A, “Dental plaque inhibitor” (Senju Pharmaceutical Col., Ltd., priority 1988, dated 1990).
# Legend:
# Streptococcus mutans = assay: Prevention of the adhesion of tooth decaying bacteria to the human tooth; format: cell-based, Streptococcus mutans ATCC 330402; conditions: 0.5% Substance 1; BHI medium with 5% sucrose; 37° C., 6 hours; scanning electron microscope x 4,000
# Method: Two test tubes were respectively filled with BHI medium containing 5% of sucrose and a sterilized human tooth was suspended in each of the tubes using a stainless steel wire. After Substance 1 was added to one of the tubes at a final concentration of 0.5%, a culture of Streptococcus mutans ATCC 330402 grown in BHI medium at 37° C. for 18 hours was added to both tubes at a final concentration of 10^8 CFU/ml. The tubes were further incubated at 37° C. for 6 hours, at the end of which time the teeth were taken out, rinsed and observed with a scanning electron microscope at a magnification of x 4,000.
# GTase = assay: GTase-inhibitory activity (formation of insoluble glucan from sucrose, turbidity at 550 nm); format: biochemical, Streptococcus mutans ATCC 33402; conditions: for Optical density of reaction system: 550 nm
# Method: The enzyme GTase was prepared from Streptococcus mutans and using sucrose as the substrate, the inhibitory effect of the test substances on the formation of insoluble glucan was determined.
# The preparation of GTase was carried out in accordance with the description in Methods for Isolation of Microorganisms (Kazue Yamazato (ed.): R&D Planning), page 733, (1) Preparation of cell-free GTase. Thus, Streptococcus mutans ATCC 33402 was cultured (inoculum size 1%) in brain heart infusion broth (Difco; hereinafter referred to as BHI medium) under stationary conditions at 37° C. for 18 hours and the resulting culture was centrifuged at 4,000 rpm for 10 minutes. The supernatant was taken and ammonium sulfate was added at a final concentration of 60% saturation. The mixture was gently stirred at 4° C. overnight for salting-out and the precipitate was dissolved in 5 mM potassium phosphate buffer (pH 6.5). This solution was then dialyzed against the same buffer at 4° C. overnight to give a crude GTase preparation.
# The assay of GTase activity was carried out by the method described in Methods for Isolation of Microorganisms (ibid), page 733, (2) Assay of activities in microbial culture filtrates with minor modification. Thus, the solution prepared as per Tables 1 and 2 was used as a test solution and the corresponding solution prepared by using the same quantity of distilled water in lieu of the test substance solution in otherwise the same composition was used as a control solution. Test tubes were filled with 5 ml aliquots of the test solution or the control solution and allowed to stand in upright position at 37° C. for 16 hours. After completion of the reaction each tube was shaken well to agitate the reaction system and the optical density at 550 nm was measured to find the degree of turbidity. The inhibitory activity of the test substance against GTase was calculated as a percentage with the turbidity of the control reaction system being taken as 100%. […]
# Among the substances falling under the purview of the present invention, those mentioned in Table 3 (Substances 1 through 6) were used as test substances.
# For each of the substances mentioned in Table 3, the GTase activity at the test substance concentration of 0.5% in the reaction system was assayed to estimate the inhibitory activity of the test substance.
# For Substance 1, GTase activity was assayed in the reaction system corresponding to each concentration of the test substance in the range of 0.01% to 1.0% and to obtain correlation between inhibitory activity and test substance concentration.
# For Substance 1 at a concentration of 0.5%, either aqueous sodium hydroxide solution or hydrochloric acid was added to portions of the substrate-test substance solution shown in Table 1 to prepare solutions adjusted to pH 4, 5, 6, 7 and 8, respectively, and using each of these solutions, the reaction was carried out at the corresponding pH. The GTase activity at each pH was assayed and the correlation between reaction system pH and inhibitory activity was studied.
# [1] = Table 4, 0.5% test substance, 37° C., 16 hours, buffer pH 6.5
# [2] = Table 4, 0.5% test substance, 37° C., 16 hours, buffer pH 6.5, control 0.55
compound,measurement,setting,value
Cc1c(C)c2c(c(C)c1OP(=O)(O)OC1=C(O)C(C(O)CO)OC1=O)CCC(C)(CCCC(C)CCCC(C)CCCC(C)C)O2 (centres unmarked) [Substance 1],adherent bacterial cells and colonies on the tooth surface (FIG. 2),Streptococcus mutans,neither adherent bacterial cells nor colonies
same,adhesion of bacterial cells and subsequent formation of colonies on the tooth surface,Streptococcus mutans,completely inhibited
same,"inhibitory activity, dependence on concentration",GTase; 0.01% to 1.0%,concentration-dependent
same,inhibition rates,GTase; 0.075% and higher concentrations,not less than 90%
same,formation of insoluble glucan,"GTase; 0.5%, pH range where GTase was active",very slight
same,% Inhibition,GTase; [1],92.7%
same,Optical density of reaction system,GTase; [2],0.04
same,% Inhibition,"GTase; Table 5, concentration 0.01%",59.7%
same,Optical density of reaction system,"GTase; Table 5, concentration 0.01%, control 0.496",0.20
same,% Inhibition,"GTase; Table 5, concentration 0.025%",59.7%
same,Optical density of reaction system,"GTase; Table 5, concentration 0.025%, control 0.496",0.20
same,% Inhibition,"GTase; Table 5, concentration 0.05%",59.7%
same,Optical density of reaction system,"GTase; Table 5, concentration 0.05%, control 0.496",0.20
same,% Inhibition,"GTase; Table 5, concentration 0.075%",89.9%
same,Optical density of reaction system,"GTase; Table 5, concentration 0.075%, control 0.496",0.05
same,% Inhibition,"GTase; Table 5, concentration 0.1%",96.0%
same,Optical density of reaction system,"GTase; Table 5, concentration 0.1%, control 0.496",0.02
same,% Inhibition,"GTase; Table 5, concentration 0.25%",96.0%
same,Optical density of reaction system,"GTase; Table 5, concentration 0.25%, control 0.496",0.02
same,% Inhibition,"GTase; Table 5, concentration 0.5%",96.0%
same,Optical density of reaction system,"GTase; Table 5, concentration 0.5%, control 0.496",0.02
same,% Inhibition,"GTase; Table 5, concentration 1.0%",96.0%
same,Optical density of reaction system,"GTase; Table 5, concentration 1.0%, control 0.496",0.02
same,Optical density,"GTase; Table 6, pH 4, 0.5% test substance, control 0.08",0.05
same,% Inhibition,"GTase; Table 6, pH 5, 0.5% test substance",71.4%
same,Optical density,"GTase; Table 6, pH 5, 0.5% test substance, control 0.35",0.06
same,% Inhibition,"GTase; Table 6, pH 6, 0.5% test substance",91.9%
same,Optical density,"GTase; Table 6, pH 6, 0.5% test substance, control 0.62",0.05
same,% Inhibition,"GTase; Table 6, pH 7, 0.5% test substance",94.9%
same,Optical density,"GTase; Table 6, pH 7, 0.5% test substance, control 0.59",0.03
same,Optical density,"GTase; Table 6, pH 8, 0.5% test substance, control 0.05",0.02
same,inhibition rates,GTase; concentration of 0.01%,about 60%
same,inhibition rate,"GTase; pH 5, 0.5%",about 70%
same,inhibition rate,"GTase; pH 6 and 7, 0.5%",not less than 90%
Cc1cc(OP(=O)(O)OC2=C(O)C(C(O)CO)OC2=O)c(C)c2c1OC(C)(CCCC(C)CCCC(C)CCCC(C)C)CC2 (centres unmarked) [Substance 2],% Inhibition,GTase; [1],94.5%
same,Optical density of reaction system,GTase; [2],0.03
Cc1c(OP(=O)(O)OC2=C(O)C(C(O)CO)OC2=O)cc2c(c1C)OC(C)(CCCC(C)CCCC(C)CCCC(C)C)CC2 (centres unmarked) [Substance 3],% Inhibition,GTase; [1],94.5%
same,Optical density of reaction system,GTase; [2],0.03
Cc1cc(OP(=O)(O)OC2=C(O)C(C(O)CO)OC2=O)cc2c1OC(C)(CCCC(C)CCCC(C)CCCC(C)C)CC2 (centres unmarked) [Substance 4],% Inhibition,GTase; [1],94.5%
same,Optical density of reaction system,GTase; [2],0.03
CC(C)CCCC(C)CCCC(C)CCCC1(C)CCc2cc(OP(=O)(O)OC3=C(O)C(C(O)CO)OC3=O)ccc2O1 (centres unmarked) [Substance 5],% Inhibition,GTase; [1],94.5%
same,Optical density of reaction system,GTase; [2],0.03
Cc1c(C)c2c(c(C)c1OP(=O)(O)OC1=C(O)C(C(O)CO)OC1=O)CCC(C)(CCCC(C)CCCC(C)CCCC(C)C)O2 (centres unmarked) [Substance 6],% Inhibition,GTase; [1],95.8%
same,Optical density of reaction system,GTase; [2],0.02
